# Measurements reported in paper PMC6151961 (Journal of Enzyme Inhibition and Medicinal Chemistry, 2018).
# Read-outs that look alike come from different tables or passages of the source.
# Columns and labels:
# CA IX [1] = target: T1, CA IX (Homo sapiens, UniProt Q16790); test: biochemical; conditions: read-out: pKi (exp.) (converted)
# CA IX [2] = target: T1, CA IX; conditions: read-out: Ki, cited from earlier work
# [3] = RP-LC chromatographic lipophilicity (logkw); type: physicochemical; conditions: chromatographic lipophilicity from gradient RP-LC, Luna RP-C18, water/acetonitrile with 0.1% formic acid, 30 °C
# [4] = experimental value used for the QSPR model, library compounds (IDs A…, B…), equals log10 of Ki in nM
# [5] = observed Ki of library compounds (IDs A…, B…), ref ChEMBL and BindingDB
# [6] = experimental value from the library Ki (IDs A…, B…), values equal log10 of Ki in nM
# [7] = library compounds with IDs A… and B…, from observed Ki (nM)
# [8] = library compounds with IDs A… and B…, observed Ki, ref ChEMBL, BindingDB
smiles,measurement,setting,value
NS(=O)(=O)c1ccc(-n2nnc(CS[C@H]3O[C@H](CO)[C@@H](O)[C@@H](O)[C@H]3O)c2I)cc1 [B0123],Ki,CA IX [1]; [4],6.5 nM
same,Ki,CA IX [2]; [5],6.5 nM
CC(=O)/N=C1\SC(S(N)(=O)=O)=N[C@@H]1C [B0187],Ki,CA IX [1],8.99 nM
same,Ki,CA IX [2],9 nM
CN(C)C1=CCN(c2ccncc2S(N)(=O)=O)C=C1 [B0189],Ki,CA IX [1]; [4],8.99 nM
same,Ki,CA IX [2]; [5],9 nM
Cc1ncc(-c2ccc(S(N)(=O)=O)s2)o1 [B0222],Ki,CA IX [1]; [6],11 nM
same,Ki,CA IX [2]; [5],11 nM
COc1ccc2c(c1)CCN(S(N)(=O)=O)[C@@H]2c1ccc(N)cc1 [B0230],Ki,CA IX [1]; [7],12 nM
same,Ki,CA IX [2]; [8],12 nM
CC(=O)OC[C@@H]1O[C@@H](NS(N)(=O)=O)C[C@@H](OC(C)=O)[C@@H]1OC(C)=O [B0263],Ki,CA IX [1],16 nM
same,Ki,CA IX [2],16 nM
Cc1ccc2c(c1)/C(=N/c1ccc(NC(=O)Nc3ccc(S(N)(=O)=O)cc3)cc1)C(=O)N2 [B0270],Ki,CA IX [1]; [4],17 nM
same,Ki,CA IX [2]; [5],17 nM
NS(=O)(=O)c1ccc(-n2cc(/C=N/Nc3nc(-c4cc5ccccc5oc4=O)cs3)c(-c3ccccc3)n2)cc1 [B0285],Ki,CA IX [1]; [4],20 nM
same,Ki,CA IX [2]; [5],20 nM
NS(=O)(=O)c1ccc(-n2cc(/C=N/Nc3nc(-c4cc5cc(Br)ccc5oc4=O)cs3)c(-c3ccccc3)n2)cc1 [B0298],Ki,CA IX [1],22 nM
same,Ki,CA IX [2],22 nM
NS(=O)(=O)c1ccc(N2C(=O)/C(=C\c3coc4ccccc4c3=O)N=C2c2ccccc2)cc1 [B0301],Ki,CA IX [1]; [7],23 nM
same,Ki,CA IX [2]; [8],23 nM
C/C(=N/Nc1ccc(S(N)(=O)=O)cc1)c1cc2cc(Br)ccc2oc1=O [B0309],Ki,CA IX [1],24 nM
same,Ki,CA IX [2],24 nM
CCOc1ccc(S(=O)(=O)N2CCOCC2)cc1-c1nnc2c(n1)c(C)nn2C [B0310],Ki,CA IX [1]; [6],24 nM
same,Ki,CA IX [2]; [5],24 nM
CCO[C@H]1Oc2ccccc2C(=O)[C@H]1/C=N\c1ccc(S(=O)(=O)Nc2cc(C)on2)cc1 [B0311],Ki,CA IX [1]; [6],24 nM
same,Ki,CA IX [2]; [5],24 nM
Nc1nc(=O)[nH]c2c1c(-c1ccc(Br)cc1)cn2-c1ccc(S(N)(=O)=O)cc1 [B0312],Ki,CA IX [1],24 nM
same,Ki,CA IX [2],24 nM
CCCN(CCC)S(=O)(=O)c1ccc(C(=O)N[C@H](Cc2ccccc2)C(N)=O)cc1 [B0320],Ki,CA IX [1],25 nM
same,Ki,CA IX [2],25 nM
NS(=O)(=O)c1ccc(NC(=S)Nc2ccc(C3c4ccc(O)cc4Oc4cc(O)ccc43)c(C(=O)O)c2)c(F)c1 [B0365],Ki,CA IX [1]; [4],30 nM
same,Ki,CA IX [2]; [5],30 nM
NS(=O)(=O)c1ccc(NC(=S)Nc2ccc(C3c4ccc(O)cc4Oc4cc(O)ccc43)c(C(=O)O)c2)c(Cl)c1 [B0381],Ki,CA IX [1]; [7],32 nM
same,Ki,CA IX [2]; [8],32 nM
CC1=CC(C)C=C(C)N1Cc1ccc(S(N)(=O)=O)cc1 [B0412],Ki,CA IX [1]; [6],38 nM
same,Ki,CA IX [2]; [5],38 nM
NS(=O)(=O)c1ccc(C(=O)OCc2cn([C@@H]3O[C@H](CO)[C@@H](O)[C@@H](O)[C@@H]3O)nn2)cc1 [B0491],Ki,CA IX [1],65 nM
same,Ki,CA IX [2],65 nM
CC(=O)O[C@@H]1O[C@@H](COS(N)(=O)=O)[C@H](OC(C)=O)[C@@H](OC(C)=O)[C@H]1OC(C)=O [B0512],Ki,CA IX [1]; [4],72.9 nM
same,Ki,CA IX [2]; [5],73 nM
CC(=O)OC[C@H]1O[C@H](SCc2nnn(-c3ccc(S(N)(=O)=O)cc3)c2C#CCO)[C@@H](OC(C)=O)[C@H](OC(C)=O)[C@@H]1OC(C)=O [B0570],Ki,CA IX [1]; [6],91 nM
same,Ki,CA IX [2]; [5],91 nM
COc1cccc(/C=C\C(=O)C[C@@H]2O[C@@H](COC(C)=O)[C@@H](OC(C)=O)[C@@H](OC(C)=O)[C@H]2OC(C)=O)c1 [B0574],Ki,CA IX [1]; [7],92.9 nM
same,Ki,CA IX [2]; [8],93 nM
NS(=O)(=O)c1ccc(-n2cc(CO[C@H]3O[C@@H](CO)[C@H](O)[C@H](O)[C@@H]3O)nn2)cc1 [B0594],Ki,CA IX [1],101 nM
same,Ki,CA IX [2],101 nM
COC(=O)[C@H]1O[C@H](SNCc2ccc(S(N)(=O)=O)cc2)[C@@H](OC(C)=O)[C@H](OC(C)=O)[C@H]1OC(C)=O [B0598],Ki,CA IX [1]; [4],102 nM
same,Ki,CA IX [2]; [5],102 nM
CC(=O)OC[C@@H]1O[C@@H](OCc2cn(-c3ccc(S(N)(=O)=O)cc3)nn2)[C@H](OC(C)=O)[C@@H](OC(C)=O)[C@H]1OC(C)=O [B0606],Ki,CA IX [1],107 nM
same,Ki,CA IX [2],107 nM
NS(=O)(=O)c1ccc(-c2cn([C@H]3O[C@H](CO)[C@@H](O[C@@H]4O[C@H](CO)[C@@H](O)[C@H](O)[C@@H]4O)[C@H](O)[C@@H]3O)nn2)cc1 [B0632],Ki,CA IX [1],130 nM
same,Ki,CA IX [2],130 nM
COc1cc(/C=C\C(=O)OCCCCO[N+](=O)[O-])ccc1OC(=O)c1cccc(S(=O)(=O)Nc2nnc(S(N)(=O)=O)s2)c1 [B0659],Ki,CA IX [1],177 nM
same,Ki,CA IX [2],177 nM
Cc1cccc(/C=N/CCc2ccc(S(N)(=O)=O)cc2)c1O [B0709],Ki,CA IX [1],295 nM
same,Ki,CA IX [2],295 nM
NS(=O)(=O)c1ccc(N[C@H]2SC[C@@H](c3ccc(Cl)cc3Cl)N2C2CCCCC2)cc1 [B0713],Ki,CA IX [1]; [4],342 nM
same,Ki,CA IX [2]; [5],342 nM
NS(=O)(=O)c1ccc(C(=O)NCc2cn([C@H]3O[C@@H](CO)[C@H](O)[C@@H](O)[C@@H]3O)nn2)cc1 [B0735],Ki,CA IX [1],442 nM
same,Ki,CA IX [2],442 nM
C[C@H]1O[C@@H](NS(N)(=O)=O)[C@@H](O)[C@H](O)[C@H]1O [B0772],Ki,CA IX [1],899 nM
same,Ki,CA IX [2],900 nM
CC(=O)OC[C@H]1O[C@H](CC(=O)/C=C\c2ccc(O)cc2)[C@@H](OC(C)=O)[C@H](OC(C)=O)[C@@H]1OC(C)=O [B0789],Ki,CA IX [1]; [7],2900 nM
same,Ki,CA IX [2]; [8],2900 nM
COC(=O)[C@@H]1O[C@H](S(N)(=O)=O)[C@@H](OC(C)=O)[C@H](OC(C)=O)[C@@H]1OC(C)=O [B0808],Ki,CA IX [1]; [4],4150 nM
same,Ki,CA IX [2]; [5],4150 nM
Oc1cc(O)c2c(c1)O[C@@H](c1ccc(O)c(O)c1)[C@H](O)C2 [B0819],Ki,CA IX [1]; [7],5040 nM
same,Ki,CA IX [2]; [8],5030 nM
COC(=O)C(=O)[C@H]1C(=O)Nc2ccccc21 [B0865],Ki,CA IX [1]; [4],8020 nM
same,Ki,CA IX [2]; [5],8020 nM
O=C(N/N=C\c1cccc(Br)c1)Nc1nnc(S)s1 [B0891],Ki,CA IX [1]; [7],10100 nM
same,Ki,CA IX [2]; [8],10100 nM
Cc1cc(S(=O)(=O)NC(=N)Nc2ccc(S(N)(=O)=O)cc2)c(SCc2ccccc2)cc1Cl [C94],logkw,[3],4.050
Cc1cc(S(=O)(=O)NC(=N)Nc2cccc(S(N)(=O)=O)c2)c(SCc2ccccc2)cc1Cl [C95],logkw,[3],3.930
Cc1cc(S(=O)(=O)NC(=N)Nc2ccccc2S(N)(=O)=O)c(SCc2ccccc2)cc1Cl [C96],logkw,[3],4.090
Cc1cc(S(=O)(=O)NC(=N)NNc2ccc(S(N)(=O)=O)cc2)c(SCc2ccccc2)cc1Cl [C97],logkw,[3],4.090
Cc1cc(S(=O)(=O)NC(=N)Nc2nnc(S(N)(=O)=O)s2)c(SCc2ccccc2)cc1Cl [C99],logkw,[3],4.070
Cc1cc(S(=O)(=O)NC(=N)Nc2ccc(S(N)(=O)=O)cc2)c(SCc2cccc(C(F)(F)F)c2)cc1Cl [C100],logkw,[3],4.530
Cc1cc(S(=O)(=O)NC(=N)Nc2cccc(S(N)(=O)=O)c2)c(SCc2cccc(C(F)(F)F)c2)cc1Cl [C101],logkw,[3],4.470
Cc1cc(S(=O)(=O)NC(=N)Nc2ccccc2S(N)(=O)=O)c(SCc2cccc(C(F)(F)F)c2)cc1Cl [C102],logkw,[3],4.430
Cc1cc(S(=O)(=O)NC(=N)Nc2nnc(S(N)(=O)=O)s2)c(SCc2cccc(C(F)(F)F)c2)cc1Cl [C104],logkw,[3],4.600
Cc1cc(S(=O)(=O)NC(=N)Nc2ccc(S(N)(=O)=O)cc2)c(SCc2ccc(C(F)(F)F)cc2)cc1Cl [C105],logkw,[3],4.550
Cc1cc(S(=O)(=O)NC(=N)Nc2cccc(S(N)(=O)=O)c2)c(SCc2ccc(C(F)(F)F)cc2)cc1Cl [C106],logkw,[3],4.540
Cc1cc(S(=O)(=O)NC(=N)Nc2ccccc2S(N)(=O)=O)c(SCc2ccc(C(F)(F)F)cc2)cc1Cl [C107],logkw,[3],4.430
Cc1cc(S(=O)(=O)NC(=N)NNc2ccc(S(N)(=O)=O)cc2)c(SCc2ccc(C(F)(F)F)cc2)cc1Cl [C108],logkw,[3],4.460
Cc1cc(S(=O)(=O)NC(=N)NCc2ccc(S(N)(=O)=O)cc2)c(SCc2ccc(C(F)(F)F)cc2)cc1Cl [C109],logkw,[3],4.590
Cc1cc(S(=O)(=O)NC(=N)Nc2ccc(S(N)(=O)=O)cc2)c(SCc2cccc3ccccc23)cc1Cl [C111],logkw,[3],3.900
Cc1cc(S(=O)(=O)NC(=N)Nc2cccc(S(N)(=O)=O)c2)c(SCc2cccc3ccccc23)cc1Cl [C112],logkw,[3],3.940
Cc1cc(S(=O)(=O)NC(=N)NNc2ccc(S(N)(=O)=O)cc2)c(SCc2cccc3ccccc23)cc1Cl [C113],logkw,[3],3.830
Cc1cc(S(=O)(=O)NC(=N)NCc2ccc(S(N)(=O)=O)cc2)c(SCc2cccc3ccccc23)cc1Cl [C114],logkw,[3],3.990
Cc1cc(S(=O)(=O)NC(=N)Nc2ccc(S(N)(=O)=O)cc2)c(SCc2cc(=O)[nH]c3ccccc23)cc1Cl [C115],logkw,[3],3.830
Cc1cc(S(=O)(=O)NC(=N)Nc2cccc(S(N)(=O)=O)c2)c(SCc2cc(=O)[nH]c3ccccc23)cc1Cl [C116],logkw,[3],3.800
Cc1cc(S(=O)(=O)NC(=N)Nc2ccccc2S(N)(=O)=O)c(SCc2cc(=O)[nH]c3ccccc23)cc1Cl [C117],logkw,[3],3.870
Cc1cc(S(=O)(=O)NC(=N)NNc2ccc(S(N)(=O)=O)cc2)c(SCc2cc(=O)[nH]c3ccccc23)cc1Cl [C118],logkw,[3],3.770
Cc1cc(S(=O)(=O)NC(=N)Nc2ccc(S(N)(=O)=O)cc2)c(SCc2cc3c(cc2Cl)OCO3)cc1Cl [C120],logkw,[3],4.070
Cc1cc(S(=O)(=O)NC(=N)Nc2cccc(S(N)(=O)=O)c2)c(SCc2cc3c(cc2Cl)OCO3)cc1Cl [C121],logkw,[3],3.990
Cc1cc(S(=O)(=O)NC(=N)NNc2ccc(S(N)(=O)=O)cc2)c(SCc2cc3c(cc2Cl)OCO3)cc1Cl [C122],logkw,[3],3.690
Cc1cc(S(=O)(=O)NC(=N)NCc2ccc(S(N)(=O)=O)cc2)c(SCc2cc3c(cc2Cl)OCO3)cc1Cl [C123],logkw,[3],3.850
